Measurements published in patent publication EP4592286A1, “MACROCYCLIC NITROGEN-CONTAINING CROWN ETHER COMPOUND AND USE THEREOF AS PROTEIN KINASE INHIBITOR” (Artivila Biopharma, priority 2022, dated 2024).

Columns and labels:
Type in all cases: biochemical
LRRK2 = LRRK2 (Homo sapiens, UniProt Q5S007); assay: experiment of inhibiting kinase activity, LRRK2; conditions: for inhibition at 0.01 µM: at 10 nM; for inhibition at 0.01 µM / inhibition at 0.1 µM: read-out: inhibition rate LRRK2; for inhibition at 0.1 µM: at 100 nM; for IC50: kinase activity assay, Table 3
Protocol: (§1) The inhibition rates of tested compounds on JAK1, JAK2, JAK3, TYK2, CDK7, CDK9, EGFR (T790M) and LRRK2 kinases were measured. The test concentrations of the compounds were 10 nM and 100 nM, and the detection was performed by replicate wells. Alternatively, compounds were 3-fold serial diluted from 10 µM for 10 concentrations in replicate wells.

JAK2 = JAK2 (Homo sapiens, UniProt O60674); assay: experiment of inhibiting kinase activity (Caliper mobility shift assay), JAK2; conditions: for inhibition at 0.01 µM: at 10 nM; for inhibition at 0.01 µM / inhibition at 0.1 µM: read-out: inhibition rate JAK2; for inhibition at 0.1 µM: at 100 nM; for IC50: kinase activity assay, Table 3
Protocol: as §1
(§2) The inhibitory effects of the compounds on JAK1, JAK2, JAK3, CDK7 and CDK9 kinases were detected by the method of Caliper mobility shift assay. 250 nL of the compound at 100-fold final concentration was transferred to a destination plate 384-well-plate by using a liquid handler Echo 550. A kinase solution at 2.5-fold final concentration was prepared with 1×kinase buffer. 10 µL of the kinase solution with 2.5-fold final concentration was added to compound wells and positive control wells; and 10 µL of 1×kinase buffer was added to negative control wells. The mixture was centrifuged at 1000 rpm for 30 seconds and then incubated at room temperature for 10 minutes. A mixed solution of ATP and kinase substrate at 5/3-fold final concentration was prepared with 1×kinase buffer, and 15 µL of the mixed solution of ATP and substrate at 5/3-fold final concentration was added to start the reaction. The 384-well plate was centrifuged at 1000 rpm for 30 seconds, shaked and mixed evenly, then incubated at room temperature for a corresponding time. 30 µL of stop solution was added to stop the kinase reaction, the mixture was centrifuged at 1000 rpm for 30 seconds, and shaked and mixed evenly. The conversion rate was read by Caliper EZ Reader. The conversion inhibition rate%=(average positive control conversion rate%-sample conversion rate%)/(average positive control conversion rate%-average negative control conversion rate%). Where negative control wells represent the conversion readings of the background well of kinase buffer; and positive control wells represent the conversion readings of wells without compound inhibition. With the log value of concentration as the x axis and the percentage inhibition rate as the y axis, the dose-response curve was fitted by the log (inhibitor) vs. response-variable slope of the analyzing softwar GraphPad Prism 5, and the IC50 values of each compound on enzyme activity were obtained. Calculation formula is as follows: y=Bottom+(Top-Bottom)/(1+10^((LogIC50-x)×hillslope)), where x is logarithm of inhibitor concentration; and Y is % inhibition rate.

JAK3 = target: T1, JAK3 (Homo sapiens, UniProt P52333); assay: experiment of inhibiting kinase activity (Caliper mobility shift assay), JAK3; conditions: for inhibition at 0.01 µM: at 10 nM; for IC50: kinase activity assay, Table 3
T1 sequence (P52333 1-1124): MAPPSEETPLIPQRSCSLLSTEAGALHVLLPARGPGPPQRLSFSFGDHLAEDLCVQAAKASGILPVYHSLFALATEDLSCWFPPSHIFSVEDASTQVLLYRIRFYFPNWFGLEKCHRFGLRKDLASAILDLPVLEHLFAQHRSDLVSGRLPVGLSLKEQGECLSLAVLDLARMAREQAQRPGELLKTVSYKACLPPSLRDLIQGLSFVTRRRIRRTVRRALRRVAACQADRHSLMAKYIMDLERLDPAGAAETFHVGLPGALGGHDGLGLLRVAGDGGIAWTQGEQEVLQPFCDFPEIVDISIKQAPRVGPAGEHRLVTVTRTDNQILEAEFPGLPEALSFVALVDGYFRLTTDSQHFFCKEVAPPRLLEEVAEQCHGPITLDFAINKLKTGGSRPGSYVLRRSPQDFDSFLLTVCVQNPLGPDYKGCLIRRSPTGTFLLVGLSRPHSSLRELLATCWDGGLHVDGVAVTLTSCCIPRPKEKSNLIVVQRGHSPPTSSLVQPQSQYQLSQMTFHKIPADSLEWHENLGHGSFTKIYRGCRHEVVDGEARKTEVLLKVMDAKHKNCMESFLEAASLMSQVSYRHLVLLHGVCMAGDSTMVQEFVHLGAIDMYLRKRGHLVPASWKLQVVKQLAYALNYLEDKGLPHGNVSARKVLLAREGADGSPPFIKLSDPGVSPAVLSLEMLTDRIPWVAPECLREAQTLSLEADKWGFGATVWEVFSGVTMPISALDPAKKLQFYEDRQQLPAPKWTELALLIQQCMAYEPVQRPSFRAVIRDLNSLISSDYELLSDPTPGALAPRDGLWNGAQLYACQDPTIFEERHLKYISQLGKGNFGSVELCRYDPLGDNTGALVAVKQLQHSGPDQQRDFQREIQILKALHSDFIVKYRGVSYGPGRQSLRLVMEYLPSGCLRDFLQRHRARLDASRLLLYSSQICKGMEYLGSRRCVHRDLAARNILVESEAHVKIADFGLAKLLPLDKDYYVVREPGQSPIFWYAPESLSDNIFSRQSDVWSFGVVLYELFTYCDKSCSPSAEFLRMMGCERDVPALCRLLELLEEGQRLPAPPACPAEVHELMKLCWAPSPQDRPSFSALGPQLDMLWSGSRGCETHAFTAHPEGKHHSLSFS
Protocol: as §1, §2

TYK2 = TYK2 (Homo sapiens, UniProt P29597); assay: experiment of inhibiting kinase activity, TYK2; conditions: read-out: inhibition rate TYK2; for inhibition at 0.01 µM: at 10 nM; for inhibition at 0.1 µM: at 100 nM
Protocol: as §1

JAK1 = JAK1 (Homo sapiens, UniProt P23458); assay: experiment of inhibiting kinase activity (Caliper mobility shift assay), JAK1; conditions: for inhibition at 0.1 µM: at 100 nM; for inhibition at 0.1 µM / inhibition at 0.01 µM: read-out: inhibition rate JAK1; for inhibition at 0.01 µM: at 10 nM
Protocol: as §1, §2

Sequence of JAK2 (O60674 whole entry): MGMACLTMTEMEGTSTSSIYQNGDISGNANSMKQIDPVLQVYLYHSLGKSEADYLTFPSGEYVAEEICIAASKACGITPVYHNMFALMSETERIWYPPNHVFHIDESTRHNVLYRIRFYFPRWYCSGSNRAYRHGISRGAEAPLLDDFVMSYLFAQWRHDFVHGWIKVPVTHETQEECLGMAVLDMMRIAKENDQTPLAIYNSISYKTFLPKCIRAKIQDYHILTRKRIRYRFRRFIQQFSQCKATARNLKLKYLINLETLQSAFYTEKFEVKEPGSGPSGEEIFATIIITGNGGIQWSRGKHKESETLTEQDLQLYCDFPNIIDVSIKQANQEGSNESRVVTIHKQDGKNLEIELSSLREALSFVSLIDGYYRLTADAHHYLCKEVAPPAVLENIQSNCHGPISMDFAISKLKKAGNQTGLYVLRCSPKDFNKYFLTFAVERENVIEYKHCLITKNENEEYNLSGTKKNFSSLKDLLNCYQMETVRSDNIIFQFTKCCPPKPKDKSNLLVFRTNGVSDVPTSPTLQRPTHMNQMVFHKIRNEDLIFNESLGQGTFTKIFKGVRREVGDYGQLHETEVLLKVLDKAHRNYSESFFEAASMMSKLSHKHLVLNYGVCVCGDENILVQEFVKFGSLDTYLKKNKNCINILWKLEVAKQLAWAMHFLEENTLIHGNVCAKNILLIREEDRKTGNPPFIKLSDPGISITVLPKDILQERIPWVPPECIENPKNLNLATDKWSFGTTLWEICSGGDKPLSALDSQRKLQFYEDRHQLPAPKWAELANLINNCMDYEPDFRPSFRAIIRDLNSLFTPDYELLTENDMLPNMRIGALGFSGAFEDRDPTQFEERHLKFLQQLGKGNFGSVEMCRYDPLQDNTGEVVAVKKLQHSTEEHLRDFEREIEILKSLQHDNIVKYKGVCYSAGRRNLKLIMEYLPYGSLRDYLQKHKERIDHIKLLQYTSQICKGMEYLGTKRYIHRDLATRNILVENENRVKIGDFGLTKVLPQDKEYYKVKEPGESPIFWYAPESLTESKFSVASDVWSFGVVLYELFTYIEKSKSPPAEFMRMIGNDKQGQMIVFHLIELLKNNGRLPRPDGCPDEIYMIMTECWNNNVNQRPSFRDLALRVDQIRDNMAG
Sequence of JAK1 (P23458 whole entry): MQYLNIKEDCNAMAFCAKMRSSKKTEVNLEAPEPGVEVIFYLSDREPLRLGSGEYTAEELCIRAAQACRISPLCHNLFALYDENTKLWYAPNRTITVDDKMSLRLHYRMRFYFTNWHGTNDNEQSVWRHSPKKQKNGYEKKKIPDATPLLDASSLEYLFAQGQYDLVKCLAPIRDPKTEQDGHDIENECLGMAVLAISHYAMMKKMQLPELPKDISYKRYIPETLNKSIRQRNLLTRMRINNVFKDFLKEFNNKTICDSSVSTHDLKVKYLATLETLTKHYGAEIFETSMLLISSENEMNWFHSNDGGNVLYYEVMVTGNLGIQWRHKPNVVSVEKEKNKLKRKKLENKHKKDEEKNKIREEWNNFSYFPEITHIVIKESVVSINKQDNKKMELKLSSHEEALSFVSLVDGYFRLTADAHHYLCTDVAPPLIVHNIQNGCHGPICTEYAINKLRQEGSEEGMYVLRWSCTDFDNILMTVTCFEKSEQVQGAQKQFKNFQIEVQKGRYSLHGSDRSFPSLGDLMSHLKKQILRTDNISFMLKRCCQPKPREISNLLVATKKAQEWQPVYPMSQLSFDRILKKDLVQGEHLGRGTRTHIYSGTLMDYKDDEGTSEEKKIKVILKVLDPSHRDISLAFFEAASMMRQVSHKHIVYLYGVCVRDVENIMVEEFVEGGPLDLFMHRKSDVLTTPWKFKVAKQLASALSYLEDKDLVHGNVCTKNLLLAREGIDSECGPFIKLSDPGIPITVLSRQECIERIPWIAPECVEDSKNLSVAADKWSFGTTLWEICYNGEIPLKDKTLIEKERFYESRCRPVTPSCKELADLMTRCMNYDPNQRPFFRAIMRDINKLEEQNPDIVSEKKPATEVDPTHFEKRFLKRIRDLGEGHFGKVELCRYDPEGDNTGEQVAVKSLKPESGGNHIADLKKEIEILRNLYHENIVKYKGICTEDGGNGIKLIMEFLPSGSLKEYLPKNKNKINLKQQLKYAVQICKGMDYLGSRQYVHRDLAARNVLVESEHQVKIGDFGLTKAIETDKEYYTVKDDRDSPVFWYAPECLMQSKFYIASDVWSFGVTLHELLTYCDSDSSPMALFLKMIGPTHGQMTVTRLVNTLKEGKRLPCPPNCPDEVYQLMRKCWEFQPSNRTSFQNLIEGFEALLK
Sequence of LRRK2 (Q5S007 whole entry): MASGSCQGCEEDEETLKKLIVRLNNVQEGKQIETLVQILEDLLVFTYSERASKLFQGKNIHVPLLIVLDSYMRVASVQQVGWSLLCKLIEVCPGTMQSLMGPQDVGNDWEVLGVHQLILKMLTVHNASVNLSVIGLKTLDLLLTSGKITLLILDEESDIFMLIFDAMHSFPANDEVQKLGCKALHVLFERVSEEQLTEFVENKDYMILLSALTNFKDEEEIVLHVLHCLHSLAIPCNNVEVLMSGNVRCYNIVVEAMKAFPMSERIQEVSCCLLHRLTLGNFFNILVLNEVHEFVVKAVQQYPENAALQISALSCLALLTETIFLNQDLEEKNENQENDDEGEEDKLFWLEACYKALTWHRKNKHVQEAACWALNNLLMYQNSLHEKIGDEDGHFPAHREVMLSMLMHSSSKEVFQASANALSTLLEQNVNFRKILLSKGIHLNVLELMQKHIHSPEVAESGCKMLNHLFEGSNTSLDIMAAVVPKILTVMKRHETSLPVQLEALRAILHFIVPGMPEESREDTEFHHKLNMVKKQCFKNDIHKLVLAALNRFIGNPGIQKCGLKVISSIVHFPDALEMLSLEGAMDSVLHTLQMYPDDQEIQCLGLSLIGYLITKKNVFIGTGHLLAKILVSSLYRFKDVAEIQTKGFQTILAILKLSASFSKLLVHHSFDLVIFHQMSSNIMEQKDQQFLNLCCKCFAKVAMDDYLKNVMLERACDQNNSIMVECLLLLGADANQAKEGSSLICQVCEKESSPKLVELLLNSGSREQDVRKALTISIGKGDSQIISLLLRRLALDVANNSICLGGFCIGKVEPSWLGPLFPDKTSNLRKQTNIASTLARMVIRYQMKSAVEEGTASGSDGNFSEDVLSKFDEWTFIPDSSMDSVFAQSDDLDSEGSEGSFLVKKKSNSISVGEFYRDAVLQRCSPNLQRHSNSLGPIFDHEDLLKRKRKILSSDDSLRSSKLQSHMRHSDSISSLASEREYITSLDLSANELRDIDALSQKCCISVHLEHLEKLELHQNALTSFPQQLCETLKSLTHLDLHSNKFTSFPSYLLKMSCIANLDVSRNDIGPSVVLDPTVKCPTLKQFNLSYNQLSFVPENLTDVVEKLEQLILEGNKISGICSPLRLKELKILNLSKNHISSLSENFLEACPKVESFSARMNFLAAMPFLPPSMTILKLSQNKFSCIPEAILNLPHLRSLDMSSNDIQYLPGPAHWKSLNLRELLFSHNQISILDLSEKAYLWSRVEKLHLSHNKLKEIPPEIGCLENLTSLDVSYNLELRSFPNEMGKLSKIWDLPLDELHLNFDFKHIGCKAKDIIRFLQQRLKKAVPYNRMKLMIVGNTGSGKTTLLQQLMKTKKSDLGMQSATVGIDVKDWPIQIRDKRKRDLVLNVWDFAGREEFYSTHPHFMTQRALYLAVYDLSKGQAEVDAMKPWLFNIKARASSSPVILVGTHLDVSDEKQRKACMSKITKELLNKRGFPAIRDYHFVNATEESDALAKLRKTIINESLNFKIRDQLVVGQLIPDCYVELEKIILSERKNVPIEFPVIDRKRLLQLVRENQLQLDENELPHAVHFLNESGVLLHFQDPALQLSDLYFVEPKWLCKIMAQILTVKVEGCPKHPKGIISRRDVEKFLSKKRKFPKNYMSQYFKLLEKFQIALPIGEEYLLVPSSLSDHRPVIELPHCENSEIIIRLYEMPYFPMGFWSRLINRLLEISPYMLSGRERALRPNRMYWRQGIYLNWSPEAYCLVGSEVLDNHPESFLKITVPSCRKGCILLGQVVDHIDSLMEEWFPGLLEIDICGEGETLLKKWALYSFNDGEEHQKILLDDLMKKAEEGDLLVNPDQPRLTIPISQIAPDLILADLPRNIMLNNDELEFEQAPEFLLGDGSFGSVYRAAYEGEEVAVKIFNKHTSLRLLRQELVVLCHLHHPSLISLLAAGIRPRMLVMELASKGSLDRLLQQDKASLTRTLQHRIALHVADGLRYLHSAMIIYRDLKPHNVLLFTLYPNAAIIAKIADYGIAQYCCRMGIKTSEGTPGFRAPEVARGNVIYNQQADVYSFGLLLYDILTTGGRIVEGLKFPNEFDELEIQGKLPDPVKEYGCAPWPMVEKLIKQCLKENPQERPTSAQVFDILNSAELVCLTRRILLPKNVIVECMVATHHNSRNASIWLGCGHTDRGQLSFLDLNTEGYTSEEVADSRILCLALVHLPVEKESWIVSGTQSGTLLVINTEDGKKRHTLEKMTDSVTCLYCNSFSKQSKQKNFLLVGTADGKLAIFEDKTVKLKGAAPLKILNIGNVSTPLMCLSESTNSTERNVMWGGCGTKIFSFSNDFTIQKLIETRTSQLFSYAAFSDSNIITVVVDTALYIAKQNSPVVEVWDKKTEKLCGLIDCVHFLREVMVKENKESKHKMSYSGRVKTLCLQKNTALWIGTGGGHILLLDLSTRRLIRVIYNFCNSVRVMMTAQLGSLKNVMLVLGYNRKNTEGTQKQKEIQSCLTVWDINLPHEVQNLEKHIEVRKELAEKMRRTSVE

| inhibition at 0.01 µM (LRRK2) | inhibition at 0.01 µM (JAK2) | inhibition at 0.01 µM (JAK3; read-out: inhibition rate JAK3) | inhibition at 0.1 µM (LRRK2) | IC50 (LRRK2) | inhibition at 0.1 µM (JAK2) | IC50 (JAK2) | Compound | further results |
| --- | --- | --- | --- | --- | --- | --- | --- | --- |
| 25 to 39% | > 80% | 25 to 39% | – | – | – | – | CCS(=O)(=O)N1CC(CC#N)(n2cc(-c3nc(Nc4ccc5c(c4)OCCN(C)CCOCCO5)ncc3F)cn2)C1 [Example 43, 2-(1-(ethylsulfonyl)-3-(4-(5-fluoro-2-((7-methyl-2,3,6,7,8,9-hexahydro-5H-benzo[b][1,4,7]trioxa[10]azacyclododecan-12-yl)amino)pyrimidin-4-yl)-1H-pyrazol-1-yl)azetidin-3-yl) acetonitrile] | inhibition at 0.01 µM (TYK2): 40 to 79% |
| – | – | – | 40 to 79% | 50 to 200 nM | > 80% | < 50 nM | CCS(=O)(=O)N1CC(CC#N)(n2cc(-c3nc(Nc4ccc5c(c4)OCCN(C)CCO5)nc4[nH]ncc34)cn2)C1 [Example 29, 2-(1-(ethylsulfonyl)-3-(4-(6-((4-methyl-3,4,5,6-tetrahydro-2H-benzo[b][1,4,7]dioxazolin-9-yl)amino)-1H-pyrazolo[3,4-d]pyrimidin-4-yl)-1H-pyrazol-1-yl)azetidin-3-yl) acetonitrile] | inhibition at 0.1 µM (JAK1): > 80%; IC50 (JAK1; kinase activity assay, Table 3): < 50 nM; IC50 (JAK3): < 50 nM; inhibition at 0.1 µM (TYK2): > 80% |
| – | – | – | > 80% | – | 25 to 39% | – | CNc1nc(Nc2ccc3c(c2)OCCN(C)CCO3)nc2[nH]ccc12 [Example 64, N^4-methyl-N^2-(4-methyl-3,4,5,6-tetrahydro-2H-benzo[b][1,4,7]dioxazolin-9-yl)-7H-pyrrolo[2,3-d]pyrimidin-2,4-diamine] | – |
| – | – | – | 40 to 79% | 50 to 200 nM | 40 to 79% | < 50 nM | CN1CCOc2ccc(Nc3ncc(F)c(-c4cn(C)c5ccccc45)n3)cc2OCC1 [Example 13, N-(5-fluoro-4-(1-methyl-1H-indol-3-yl)pyrimidin-2-yl)-4-methyl-3,4,5,6-tetrahydro-2H -benzo[b][1,4,7]bisoxazolin-9-amine] | IC50 (JAK3): 50 to 200 nM; inhibition at 0.1 µM (TYK2): 25 to 39% |
| – | 40 to 79% | – | – | – | > 80% | < 50 nM | CN1CCOc2ccc(Nc3ncc(F)c(Nc4cccc(S(=O)(=O)NC(C)(C)C)c4)n3)cc2OCC1 [Example 1, N-(tert-butyl)-3-((5-fluoro-2-((4-methyl-3,4,5,6-tetrahydro-2H-benzo[b][1,4,7]dioxazolin-9-yl)amino)pyrimidin-4-yl)amino)benzsulfamide] | inhibition at 0.1 µM (JAK1): 25 to 39%; inhibition at 0.1 µM (JAK3; at 100 nM, read-out: inhibition rate JAK3): 25 to 39% |
| 25 to 39% | 40 to 79% | 25 to 39% | – | – | – | – | CN1CCOc2ccc(Nc3nc(-c4cnn(C5CN(S(C)(=O)=O)C5)c4)c4cc[nH]c4n3)cc2OCC1 [Example 69, 4-methyl-N-(4-(1-(1-(methylsulfonyl)azetidin-3-yl)-1H-pyrazol-4-yl)-7H-pyrrolo [2,3-d]pyrimidin-2-yl)-3,4,5,6-tetrahydro-2H-benzo[b][1,4,7]dioxazolin-9-amine] | – |
| > 80% | 40 to 79% | 40 to 79% | – | < 50 nM | – | – | CN1CCOCCOc2cc(Nc3nc(Nc4ccccc4NS(C)(=O)=O)c4cc[nH]c4n3)ccc2OCC1 [Example 61, N-(2-((2-((7-methyl-2,3,6,7,8,9-hexahydro-5H-benzo[b][1,4,7]trioxa[10]azacyclododecan-13-yl)amino)-7H-pyrrolo[2,3-d]pyrimidin-4-yl)amino)phenyl)methanesulfonamide] | – |
| – | > 80% | – | – | – | – | – | CCS(=O)(=O)N1CC(CC#N)(n2cc(-c3nc(Nc4ccc5c(c4)OCCN(C)CCOCCO5)nc4[nH]ncc34)cn2)C1 [Example 50, 2-(1-(ethylsulfonyl)-3-(4-(6-((7-methyl-2,3,6,7,8,9-hexahydro-5H-benzo[b][1,4,7]trioxa[10]azacyclododecan-12-yl)amino)-1H-pyrazolo[3,4-d]pyrimidin-4-yl)-1H-pyrazol-1-y 1)azetidin-3-yl)acetonitrile] | inhibition at 0.01 µM (TYK2): 25 to 39% |
| – | 40 to 79% | – | – | – | – | – | CN1CCOc2ccc(Nc3ncc(Cl)c(Nc4cccc(NC(=O)[C@H]5C[C@H](N)C5)c4)n3)cc2OCC1 [Example 72, (1r,3r)-3-amino-N-(3-((5-chloro-2-((4-methyl-3,4,5,6-tetrahydro-2H-benzo[b][1,4,7]dioxazolin-9-yl)amino)pyrimidin-4-yl)amino)phenyl)cyclobutan-1-carboxamide] | inhibition at 0.01 µM (JAK1): 25 to 39% |
| 40 to 79% | 40 to 79% | – | – | – | – | – | CN1CCOCCOc2cc(Nc3nc(-c4cnn(S(C)(=O)=O)c4)c4cc[nH]c4n3)ccc2OCC1 [Example 63, 7-methyl-N-(4-(1-(methylsulfonyl)-1H-pyrazol-4-yl)-7H-pyrrolo[2,3-d]pyrimidin-2-yl)-2,3,6,7,8,9-hexahydro-5H-benzo[b][1,4,7]trioxa[10]azacyclododecan-13-amine] | – |
| – | – | – | 40 to 79% | 50 to 200 nM | 40 to 79% | < 50 nM | CN1CCOc2ccc(Nc3nc(Nc4cccc(S(=O)(=O)NC(C)(C)C)c4)c4cc[nH]c4n3)cc2OCC1 [Example 21, N-(tert-butyl)-3-((2-((4-methyl-3,4,5,6-tetrahydro-2H-benzo[b][1,4,7]dioxazolin-9-yl)amino)-7H-pyrrolo[2,3-d]pyrimidin-4-yl)amino)benzenesulfonamide] | – |
| – | 40 to 79% | 25 to 39% | – | – | – | – | CN1CCOCCOc2ccc(Nc3ncc(F)c(-c4cn(C)c5ccccc45)n3)cc2OCC1 [Example 41, N-(5-fluoro-4-(1-methyl-1H-indol-3-yl)pyrimidin-2-yl)-7-methyl-2,3,6,7,8,9-hexahydro-5H-benzo[b][1,4,7]trioxa[10]azacyclododecan-12-amine] | – |

| Compound | inhibition at 0.01 µM (LRRK2) | inhibition at 0.01 µM (JAK2) | inhibition at 0.01 µM (JAK3; read-out: inhibition rate JAK3) | inhibition at 0.1 µM (LRRK2) | IC50 (LRRK2) | inhibition at 0.1 µM (JAK2) | IC50 (JAK2) | further results |
| --- | --- | --- | --- | --- | --- | --- | --- | --- |
| CN1CCOc2ccc(Nc3nc(N4C[C@H]5CC[C@@H](C4)N5C(=O)C4CC4)c4cc[nH]c4n3)cc2OCC1 [Example 79, cyclopropyl((1R,5S)-3-(2-((4-methyl-3,4,5,6-tetrahydro-2H-benzo[b][1,4,7]dioxazolin-9-yl)amino)-7H-pyrrolo[2,3-d]pyrimidin-4-yl)-3,8-diazabicyclo[3.2.1]octan-8-yl)methanone] | 40 to 79% | > 80% | – | – | – | – | – | inhibition at 0.01 µM (JAK1): 40 to 79%; inhibition at 0.01 µM (TYK2): > 80% |
